Marks after values point to notes of the source that are not given here.
Legend:
[1] = Edoxaban-ketoconazole drug interaction study, plasma pharmacokinetics
[2] = cited from earlier work
[3] = Safety and tolerability, all three studies; type: in vivo, human
OAT1 = conditions: cited from earlier work
OAT3 = conditions: cited from earlier work
OATP1B1 = conditions: cited from earlier work
P‐gp = conditions: Caco‐2 cell monolayers; transport strongly hindered by P‐gp inhibitors; cited from earlier work
[4] = Edoxaban-cyclosporine drug interaction study, plasma pharmacokinetics
[5] = cited from earlier work; remark: listed apart in the source
OCT2 = conditions: cited from earlier work
[6] = Edoxaban-erythromycin drug interaction study, plasma pharmacokinetics
CYP3A4 = conditions: cited from earlier work
[7] = edoxaban + ketoconazole vs alone, reduced
[8] = edoxaban + cyclosporine vs edoxaban alone
[9] = edoxaban + cyclosporine vs edoxaban alone, based on geometric LSM ratios
[10] = edoxaban + erythromycin vs edoxaban alone
[11] = erythromycin study, edoxaban 60 mg alone, mean ± SD, n = 32

CN1CCc2nc(C(=O)N[C@@H]3C[C@@H](C(=O)N(C)C)CC[C@@H]3NC(=O)C(=O)Nc3ccc(Cl)cn3)sc2C1 [Edoxaban]
change in clearance [1, 7]: approximately 46%
change in volume of distribution [1, 7]: approximately 46%
increase in total exposure (AUC) ([1]; edoxaban + ketoconazole vs edoxaban alone): 87%
half-life ([1]; human, in vivo): ~11.5 h
AUC(0-inf) ([1]; human, in vivo, 60 mg): 1650 ± 412 ng·h/mL
half-life ([1]; human, in vivo, 60 mg): 11.9 ± 4.11 h
Cmax ([1]; human, in vivo, po, 60 mg): 245 ± 86.9 ng/mL
metabolism via CYP3A4, share of total clearance [2]: < 4%
oral (absolute) bioavailability [2]: 62%
serious adverse events [3]: No serious adverse events
tolerability ([3]; alone or in combination with ketoconazole, erythromycin, or cyclosporine): well tolerated
substrate of OAT1 (OAT1): not a substrate
substrate of OAT3 (OAT3): not a substrate
substrate of OATP1B1 (OATP1B1): not a substrate
transport via P‐gp (P‐gp): transported via P‐gp
increase in peak exposure [4, 8]: approximately 1.7 fold
increase in total exposure [4, 8]: approximately 1.7 fold
increase in peak exposure (Cmax) [4, 9]: 74%
increase in total exposure (AUC) [4, 9]: 73%
AUC(0-inf) ([4]; human, in vivo, 60 mg): 1830 ± 363 ng·h/mL
Tmax ([4]; human, in vivo, 60 mg): 1.5 h
half-life ([4]; human, in vivo, 60 mg): 14.5 ± 5.34 h
increase in total exposure with quinidine ([5]; intravenous dosing of edoxaban): about 35%
increase in exposure with quinidine ([5]; oral edoxaban): about 68%
substrate of OCT2 (OCT2): not a substrate
decrease in apparent volume of distribution [6, 10]: 63%
decrease in total apparent clearance [6, 10]: about 47%
increase in total exposure (AUC) [6, 10]: 85%
AUC (extrapolated to infinity) [6, 11]: 1740 ± 443.7 ^b ng h ml^–1
t1/2 [6, 11]: 10.24 ± 3.71 ^b h
Cmax ([6]; human, in vivo, po, 60 mg): 259 ± 100 ng/mL

CC(=O)N1CCN(c2ccc(OCC3COC(Cn4ccnc4)(c4ccc(Cl)cc4Cl)O3)cc2)CC1 (centres unmarked) [ketoconazole]
degree of CYP3A4 inhibitory activity (CYP3A4): strong
